Here are results for 2 compounds from patent US20250058000A1, “Treatment of Proliferative Disorders Using Antibodies to PSMA” (Cornell University, priority 2007, published 2025).

Structures are written as SMILES.

Experiment [1] has as its system LNCaP cells. Kind of experiment: Docetaxel inhibition of LNCaP cell growth at different folate concentrations (cell count). It is filed as cell-based, human. As to conditions: 10 or 20 μg/ml docetaxel for 72 hours, cells counted after 1 week; FIG. 12. The method, then: Docetaxel (taxotere) at concentrations of 10 or 20 μg/ml was incubated with LNCaP cells for 72 hours and at different concentrations of folate supplied in the form of folic acid from culture medium. Cells were counted after 1 week. […] The open bar is the control without treatment with docetaxel, the speckled bars are cells treated with 10 ug/ml docetaxel together with the indicated concentration of folate, and the striped bars are cells treated with 20 ug/ml docetaxel together with the indicated concentration of folate. The indicated concentrations of folate are over and above the physiological level of folate provided by the folate present in fetal calf serum (for example, 12 nm folate represents 12 nm folate above the physiological concentration). […] It is likely that decreased folate availability to cancer cells would enhance the anti-tumor effect of other cytotoxic, cytostatic and hormonal.

In experiment [2] the test system is prostate cancer. As to conditions: patients after developing androgen-independence; taxane-based chemotherapy; cited from earlier work.
The test system of experiment [3] is LNCaP cells. The experiment can be described thus: Effect of folic acid concentration on cell growth rate. Type of experiment: cell-based, human. Conditions: folate level increased above physiological; FIG. 3. An excerpt:
Increasing the folate level above physiological can increase the growth rate by almost 2-fold. In cell lines that express PSMA (such as LNCaP), the same growth increase is also found if folate is provided in the form of ‘natural’ or dietary folate (e.g., polyglutamated folate) which is digested to monoglutamated folate by PSMA. The latter (monoglutamated folate) can cross the cell membrane whereas polyglutamated folate cannot. Anti-PSMA Antibody, J415, Inhibits PSMA tic Activity.

The subject of experiment [4] is PSMA expression, Cwr22rv1. Kind of experiment: PSMA expression (J591 labeling, FACS) after three weeks in lowered-folate media. Type of experiment: cell-based, human. As to conditions: folate lowered to 10 nM, vs standard media, FIG. 9. The method, then: (§1) According to the World Health Organization, physiological level of serum folate is 12 nmol/L. Standard tissue culture media contains approx 150× the concentration of folate found in human serum/plasma. […] FIGS. 5-11 show the PSMA expression levels of different cell lines were grown for three weeks in standard media (containing 150× physiological concentration of folate; lines 2), standard media with only 50 nM folate, or standard media with only 10 nM folate. The cells were labeled with anti-PSMA antibody J591 followed by a fluorescently labeled secondary antibody that recognizes J591. Lines 1 show the cells labeled with a negative isotype control antibody followed by the labeled secondary antibody.

Experiment [5] concerns PSMA expression, LNCaP. The experiment is described as above. It is filed as cell-based, human. Conditions: folate lowered in the media, FIG. 11. The method, then: as §1
Experiment [6] concerns PSMA expression, PC3. The description is as above. As to conditions: folate lowered to 50 nM or less, vs standard media, FIG. 10. Type of experiment: cell-based, human. The method, then: as §1
The test system of experiment [7] is PSMA expression, SK-RC-06. Described as above. It is filed as cell-based, human. Conditions: folate lowered to 50 nM or less, vs standard media, FIG. 8. The method, then:
as §1

For experiment [8], the system named is PSMA expression, SK-RC-31. Described as above. Type of experiment: cell-based, human. As to conditions: folate lowered to 10 nM, vs standard media, FIG. 5. As for the experimental part: as §1
The subject of experiment [9] is PSMA expression, SK-RC-39. Described as above. Conditions: folate lowered to 10 nM, vs standard media, FIG. 7. It is filed as cell-based, human. The method, then: as §1
In experiment [10] the test system is PSMA expression, SK-RC-42. Described as above. As to conditions: folate lowered to 10-50 nM, vs standard media, FIG. 6. Type of experiment: cell-based, human. As for the experimental part: as §1

As to `CC(=O)O[C@@]12CO[C@@H]1C[C@H](O)[C@@]1(C)C(=O)[C@H](O)C3=C(C)[C@@H](OC(=O)[C@H](O)[C@@H](NC(=O)OC(C)(C)C)c4ccccc4)C[C@@](O)([C@@H](OC(=O)c4ccccc4)[C@H]21)C3(C)C` [docetaxel], the “Cell killing/inhibition of growth depending on folate level (in words)” value in [1] was “decreasing folate levels increases the cell killing/inhibition of growth”. In addition, in [2], the Median survival is recorded as 19 months.

Consider `Nc1nc2ncc(CNc3ccc(C(=O)N[C@@H](CCC(=O)O)C(=O)O)cc3)nc2c(=O)[nH]1` [folate, folic acid], for which, in experiment [3], the “Increase of growth rate” value is roughly 2 fold. Further, the “Increase in PSMA expression” value worked out at 950% in [4]; 400% in [6]; 225% in [7]; 250% in [8]; 250% in experiment [9]; 650% in experiment [10]. Also, in experiment [5], the “Upregulation of PSMA expression (in words)” value is on record as “did not cause upregulation of PSMA expression”.
